Experimental data taken from ChEMBL document CHEMBL2331144, “Synthesis and anticancer activity of analogues of phenstatin, with a phenothiazine A-ring, as a new class of microtubule-targeting agents” (Bioorg Med Chem Lett, 2013).

Assays:
KM12 = test: Growth inhibition of human KM12 cells after 48 hrs by sulforhodamine B assay; format: functional; details: KM12, 48 h
UO-31 = test: Growth inhibition of human UO31 cells after 48 hrs by sulforhodamine B assay; format: functional; details: UO-31, 48 h
Malme-3M = test: Growth inhibition of human MALME-3M cells after 48 hrs by sulforhodamine B assay; format: functional
A549 = test: Growth inhibition of human A549/ATCC cells after 48 hrs by sulforhodamine B assay; format: functional; details: A549, 48 h
HT-29 = test: Growth inhibition of human HT-29 cells after 48 hrs by sulforhodamine B assay; format: functional; details: HT-29, 48 h
CCRF-CEM = test: Growth inhibition of human CCRF-CEM cells after 48 hrs by sulforhodamine B assay; format: functional
MOLT-4 = test: Growth inhibition of human MOLT4 cells after 48 hrs by sulforhodamine B assay; format: functional; details: MOLT-4, 48 h
SR = test: Growth inhibition of human SR cells after 48 hrs by sulforhodamine B assay; format: functional
OVCAR-4 = test: Growth inhibition of human OVCAR4 cells after 48 hrs by sulforhodamine B assay; format: functional; details: OVCAR-4, 48 h
SF-268 = test: Growth inhibition of human SF268 cells after 48 hrs by sulforhodamine B assay; format: functional; details: SF-268, 48 h
HOP-92 = test: Growth inhibition of human HOP92 cells after 48 hrs by sulforhodamine B assay; format: functional; details: HOP-92, 48 h
MDA-MB-468 = test: Growth inhibition of human MDA-MB-468 cells after 48 hrs by sulforhodamine B assay; format: functional; details: MDA-MB-468, 48 h
CAKI-1 = test: Growth inhibition of human CAKI-1 cells after 48 hrs by sulforhodamine B assay; format: functional; details: CAKI-1, 48 h
SNB-75 = test: Growth inhibition of human SNB75 cells after 48 hrs by sulforhodamine B assay; format: functional; details: SNB-75, 48 h
OVCAR-8 = test: Growth inhibition of human OVCAR8 cells after 48 hrs by sulforhodamine B assay; format: functional; details: OVCAR-8, 48 h
K562 = test: Growth inhibition of human K562 cells after 48 hrs by sulforhodamine B assay; format: functional; details: K562, 48 h
NCI-H23 = test: Growth inhibition of human NCI-H23 cells after 48 hrs by sulforhodamine B assay; format: functional; details: NCI-H23, 48 h
Ovis aries = organism: Ovis aries; test: Inhibition of sheep brain tubulin polymerization at 100 uM using DAPI by fluorimetry
UACC-62 = test: Growth inhibition of human UACC62 cells after 48 hrs by sulforhodamine B assay; format: functional; details: UACC-62, 48 h
SK-MEL-28 = test: Growth inhibition of human SK-MEL-28 cells after 48 hrs by sulforhodamine B assay; format: functional; details: SK-MEL-28, 48 h
BT-549 = test: Growth inhibition of human BT549 cells after 48 hrs by sulforhodamine B assay; format: functional; details: BT-549, 48 h
SW-620 = test: Growth inhibition of human SW620 cells after 48 hrs by sulforhodamine B assay; format: functional; details: SW-620, 48 h
IGROV-1 = test: Growth inhibition of human IGROV1 cells after 48 hrs by sulforhodamine B assay; format: functional; details: IGROV-1, 48 h
M14 = test: Growth inhibition of human M14 cells after 48 hrs by sulforhodamine B assay; format: functional; details: M14, 48 h
HOP-62 = test: Growth inhibition of human HOP62 cells after 48 hrs by sulforhodamine B assay; format: functional; details: HOP-62, 48 h
ACHN = test: Growth inhibition of human ACHN cells after 48 hrs by sulforhodamine B assay; format: functional
[1] = Growth inhibition of human NCI-ADR-RES cells after 48 hrs by sulforhodamine B assay; format: functional
786-0 = test: Growth inhibition of human 786-0 cells after 48 hrs by sulforhodamine B assay; format: functional; details: 786-0, 48 h
[2] = Growth inhibition of human HCC2998 cells after 48 hrs by sulforhodamine B assay; format: functional; details: HCC 2998, 48 h
SF-539 = test: Growth inhibition of human SF539 cells after 48 hrs by sulforhodamine B assay; format: functional; details: SF-539, 48 h
MDA-MB-231 = test: Growth inhibition of human MDA-MB-231 cells after 48 hrs by sulforhodamine B assay; format: functional; details: MDA-MB-231, 48 h
SK-MEL-2 = test: Growth inhibition of human SK-MEL-2 cells after 48 hrs by sulforhodamine B assay; format: functional; details: SK-MEL-2, 48 h
SK-MEL-5 = test: Growth inhibition of human SK-MEL-5 cells after 48 hrs by sulforhodamine B assay; format: functional; details: SK-MEL-5, 48 h
LOX IMVI = test: Growth inhibition of human LOXIMVI cells after 48 hrs by sulforhodamine B assay; format: functional
MCF7 = test: Growth inhibition of human MCF7 cells after 48 hrs by sulforhodamine B assay; format: functional; details: MCF7, 48 h
RXF 393 = test: Growth inhibition of human RXF393 cells after 48 hrs by sulforhodamine B assay; format: functional; details: RXF 393, 48 h
HCT-15 = test: Growth inhibition of human HCT15 cells after 48 hrs by sulforhodamine B assay; format: functional; details: HCT-15, 48 h
A498 = test: Growth inhibition of human A498 cells after 48 hrs by sulforhodamine B assay; format: functional; details: A498, 48 h
TK-10 = test: Growth inhibition of human TK10 cells after 48 hrs by sulforhodamine B assay; format: functional; details: TK-10, 48 h
OVCAR-3 = test: Growth inhibition of human OVCAR3 cells after 48 hrs by sulforhodamine B assay; format: functional; details: OVCAR-3, 48 h
COLO 205 = test: Growth inhibition of human COLO205 cells after 48 hrs by sulforhodamine B assay; format: functional; details: COLO 205, 48 h
T47D = test: Growth inhibition of human T47D cells after 48 hrs by sulforhodamine B assay; format: functional
HCT-116 = test: Growth inhibition of human HCT116 cells after 48 hrs by sulforhodamine B assay; format: functional; details: HCT-116, 48 h
UACC-257 = test: Growth inhibition of human UACC257 cells after 48 hrs by sulforhodamine B assay; format: functional; details: UACC-257, 48 h
SF-295 = test: Growth inhibition of human SF295 cells after 48 hrs by sulforhodamine B assay; format: functional; details: SF-295, 48 h
PC-3 = test: Growth inhibition of human PC3 cells after 48 hrs by sulforhodamine B assay; format: functional; details: PC-3, 48 h
RPMI-8226 = test: Growth inhibition of human RPMI8226 cells after 48 hrs by sulforhodamine B assay; format: functional; details: RPMI-8226, 48 h
SN12C = test: Growth inhibition of human SN12C cells after 48 hrs by sulforhodamine B assay; format: functional
MDA-MB-435 = test: Growth inhibition of human MDA-MB-435 cells after 48 hrs by sulforhodamine B assay; format: functional; details: MDA-MB-435, 48 h
HL-60(TB) = test: Growth inhibition of human HL-60(TB) cells after 48 hrs by sulforhodamine B assay; format: functional; details: HL-60, 48 h
NCI-H460 = test: Growth inhibition of human NCI-H460 cells after 48 hrs by sulforhodamine B assay; format: functional; details: NCI-H460, 48 h
SK-OV-3 = test: Growth inhibition of human SKOV3 cells after 48 hrs by sulforhodamine B assay; format: functional; details: SK-OV-3, 48 h
DU-145 = test: Growth inhibition of human DU145 cells after 48 hrs by sulforhodamine B assay; format: functional; details: DU-145, 48 h
[3] = Growth inhibition of human Hs 578T cells after 48 hrs by sulforhodamine B assay; format: functional
NCI-H522 = test: Growth inhibition of human NCI-H522 cells after 48 hrs by sulforhodamine B assay; format: functional; details: NCI-H522, 48 h
OVCAR-5 = test: Growth inhibition of human OVCAR5 cells after 48 hrs by sulforhodamine B assay; format: functional; details: OVCAR-5, 48 h
[4] = Inhibition of sheep brain tubulin polymerization using DAPI by fluorimetry; parameters: species or system Ovis aries

In the case of `CCOc1ccc(C(=O)N2c3ccccc3Sc3ccccc32)cc1Cl`, the GI50 (KM12) is reported as 426 nM, the GI50 (UO-31) is reported as 520 nM and the GI50 (Malme-3M) is reported as 446 nM. The GI50 (A549) was 620 nM, the GI50 (HT-29) was 320 nM and the GI50 (CCRF-CEM) was 361 nM. The GI50 (MOLT-4) was 408 nM, the GI50 (SR) was 142 nM and the GI50 (OVCAR-4) was 3750 nM. It also gave a GI50 (SF-268) of 1760 nM, a GI50 (HOP-92) of 272 nM and a GI50 (MDA-MB-468) of 257 nM. The GI50 (CAKI-1) was 457 nM, the GI50 (SNB-75) was 283 nM and the GI50 (OVCAR-8) was 596 nM. The GI50 (K562) was 277 nM, the GI50 (NCI-H23) was 999 nM and the inhibition (Ovis aries) was 48%. For the same compound, the GI50 (UACC-62) was 451 nM, the GI50 (SK-MEL-28) was 817 nM and the GI50 (BT-549) was 613 nM. It also gave a GI50 (SW-620) of 349 nM, a GI50 (IGROV-1) of 1020 nM and a GI50 (M14) of 373 nM. The GI50 (HOP-62) was 512 nM, the GI50 (ACHN) was 447 nM and the GI50 [1] was 376 nM. It also gave a GI50 (786-0) of 481 nM, a GI50 [2] of 2700 nM and a GI50 (SF-539) of 239 nM. For the same compound, the GI50 (MDA-MB-231) was 531 nM, the GI50 (SK-MEL-2) was 395 nM and the GI50 (SK-MEL-5) was 333 nM. It also gave a GI50 (LOX IMVI) of 750 nM, a GI50 (MCF7) of 419 nM and a GI50 (RXF 393) of 236 nM. For the same compound, the GI50 (HCT-15) was 373 nM, the GI50 (A498) was 210 nM and the GI50 (TK-10) was 857 nM. For the same compound, the GI50 (OVCAR-3) was 231 nM, the GI50 (COLO 205) was 354 nM and the GI50 (T47D) was 466 nM. It also gave a GI50 (HCT-116) of 457 nM, a GI50 (UACC-257) of 564 nM and a GI50 (SF-295) of 254 nM. It also gave a GI50 (PC-3) of 390 nM, a GI50 (RPMI-8226) of 424 nM and a GI50 (SN12C) of 777 nM. The GI50 (MDA-MB-435) was 95 nM, the GI50 (HL-60(TB)) was 315 nM and the GI50 (NCI-H460) was 368 nM. The GI50 (SK-OV-3) was 623 nM, the GI50 (DU-145) was 476 nM and the GI50 [3] was 573 nM. The GI50 (NCI-H522) was 221 nM and the GI50 (OVCAR-5) was 527 nM.

With `COc1cc2cc(C(=O)N3c4ccccc4Sc4ccccc43)[nH]c2cc1OC` the GI50 (KM12) was 620 nM, the GI50 (Malme-3M) was 503 nM and the GI50 (A549) was 656 nM. The GI50 (HT-29) was 395 nM, the GI50 (CCRF-CEM) was 589 nM and the GI50 (MOLT-4) was 1540 nM. For the same compound, the GI50 (SR) was 303 nM, the GI50 (OVCAR-4) was 1750 nM and the GI50 (SF-268) was 10200 nM. It also gave a GI50 (HOP-92) of 54 nM, a GI50 (MDA-MB-468) of 204 nM and a GI50 (CAKI-1) of 573 nM. For the same compound, the GI50 (SNB-75) was 392 nM, the GI50 (OVCAR-8) was 1630 nM and the GI50 (K562) was 437 nM. For the same compound, the GI50 (NCI-H23) was 7140 nM, the inhibition (Ovis aries) was 36% and the GI50 (UACC-62) was 529 nM. The GI50 (SK-MEL-28) was 829 nM, the GI50 (BT-549) was 6060 nM and the GI50 (SW-620) was 418 nM. The GI50 (IGROV-1) was 1880 nM, the GI50 (M14) was 599 nM and the GI50 (HOP-62) was 838 nM. The GI50 (ACHN) was 611 nM, the GI50 [1] was 571 nM and the GI50 (786-0) was 941 nM. It also gave a GI50 [2] of 23400 nM, a GI50 (SF-539) of 517 nM and a GI50 (MDA-MB-231) of 184 nM. It also gave a GI50 (SK-MEL-2) of 873 nM, a GI50 (SK-MEL-5) of 300 nM and a GI50 (LOX IMVI) of 3310 nM. The GI50 (MCF7) was 368 nM, the GI50 (RXF 393) was 363 nM and the GI50 (HCT-15) was 442 nM. For the same compound, the GI50 (A498) was 215 nM, the GI50 (TK-10) was 8310 nM and the GI50 (OVCAR-3) was 366 nM. For the same compound, the GI50 (COLO 205) was 595 nM, the GI50 (T47D) was 804 nM and the GI50 (HCT-116) was 537 nM. It also gave a GI50 (SF-295) of 329 nM, a GI50 (PC-3) of 435 nM and a GI50 (RPMI-8226) of 902 nM. It also gave a GI50 (SN12C) of 3860 nM, a GI50 (MDA-MB-435) of 184 nM and a GI50 (HL-60(TB)) of 387 nM. For the same compound, the GI50 (NCI-H460) was 396 nM, the GI50 (SK-OV-3) was 723 nM and the GI50 (DU-145) was 679 nM. It also gave a GI50 [3] of 1960 nM, a GI50 (NCI-H522) of 335 nM and a GI50 (OVCAR-5) of 2590 nM.

With `COc1cc([C@@H]2c3cc4c(cc3C[C@H]3COC(=O)[C@@H]32)OCO4)cc(OC)c1OC` [DESOXYPODOPHYLLOTOXIN] the inhibition (Ovis aries) was 100% and the IC50 [4] was 1760 nM.
